In PMC5295395, “Inhibition of PlexA1-mediated brain tumor growth and tumor-associated angiogenesis using a transmembrane domain targeting peptide” (Oncotarget, 2016):

Columns and labels:
[1] = system: NRP1-PlexA1 complex; test: co-immunoprecipitation of NRP1 with PlexA1 in U373MG cells; type: cell-based, human; settings: 10^−7 M peptide 1 h
Method: (§1) (C) Rac-1 activation assay in resting condition and after Sema3A-induced Rac-1 activation in U373 MG cells. (D) Western blot analysis of phosphorylated Akt, total Akt and tubulin in U373MG cells treated with the vehicle (LDS 72 μM), Sema3A (100 ng/ml) or Sema3A + MTP-PlexA1 (10^−7 M). The lower panel is showing the quantification of the p-Akt/Akt ratio in the different conditions. (E) MTP-PlexA1 decreases VEGFR-2 phosphorylation induced by VEGF (100 ng/ml) in HUVEC cells. […]
(§2) in 20 mM sodium acetate (pH 4.5) at a flow rate of 5 μl/ min 10–7 M of MTP-PlexA1 or Vehicle (LDS, 72 µM) during until desired surface densities, measured in response 1 h. Stimulation was done with 100ng/ml Semaphorin 3A units, were reached. […] First antibodies (Rabbit anti-phospho-the elution buffer containing detergent removed non- akt, Rabbit anti-akt, Cell Signaling #4060 and #9272 biotinylated peptides rendering the chip ready for analysis respectively) and mouse anti-tubulin α (Cell Signaling with monomeric biot-MTP-PlexA1. Blank surfaces were #2144) were incubated overnight at 4°C (+ anti-NRP1, used for background corrections. Injections of 30 µl anti-PlexA4 Abcam). […] Images of the immuno-blots cells per well in a 6-well plate and serum starved overnight. were acquired and analyzed thanks to the GENE GNOME Before protein extraction, the cells were treated either with apparatus (Syngene Bio Imaging, UK).

[2] = system: PlexA4-PlexA1 complex; test: co-immunoprecipitation of Plexin-A4 with PlexA1 in U373MG cells; type: cell-based, human; settings: 10^−7 M peptide 1 h
Method: as §1, §2

[3] = system: U118MG-Luc cells; test: MTT proliferation assay, U118MG-Luc; type: cell-based, human; settings: 24 h culture
[4] = system: PH3 positive cells in U118MG-Luc tumors; test: PH3 immunostaining of U118MG-Luc xenograft tumor sections; type: in vivo, human cells in mouse; settings: 5 sections per tumor, vs control; p = 0.0022, Mann Whitney
Method: To address the biological consequences of MTP-PlexA1-mediated inhibition of PlexA1 we used the U118MG-Luc glioma cell line genetically engineered to express the luciferase reporter gene. […] Cells were then grafted subcutaneously and tumor growth was monitored every 5 days for a total period of 20 days. […] The quantitative analysis of the cumulated luminescent signal acquired all along the protocol confirmed the strong reduction of tumor development translating into a marked 75% reduction of the averaged luminescent signal at the end point (Figure 6C). […] In order to clarify the mechanism by which MTP-PlexA1 is exerting tumor growth inhibition we collected tumors and analyzed them histologically.
(B) Representative photographs illustrating the kinetic of tumor growth over 20 days in the two experimental groups. […] (D) Waterfall plot of best response representing the percent change in tumor volume of individual treated animals (grey bars, n = 10) compared to the average tumor volume increased determined in the control group (dark bars, n = 10). […] (F) Representative microphotographs and related quantification of PH3 positive cells in tumor slices (G) Representative microphotographs and related quantification of CD31 positive regions in tumor slices (% CD31 per μm² of tumors).

[5] = system: U373MG cells; test: 3D migration assay, U373MG spheroids in plasma clot; type: cell-based, human; settings: 3D plasma clot, 24 h, VEGF 100 ng/ml, MTP-PlexA1 10–7 M
Method: Supplementary Figure S6: The anti-tumor effect of MTP-PlxA1 was verified in U373MG human GBM line. We found […]
Because PlexA1 is involved in cell migration we also performed a 3D migration assay. U373MG cells were grown as cell aggregates (micro tumor-like spheroids) for 24 h in plasma clot with or without VEGF. […]
migration that formed cell chains invading the 3D substrate as previously described (12). Strikingly, VEGF-induced cell migration was abolished when MTP-PlexA1 at 10–7 M was added to the cultures. […]
of PlexA1, this part of the study exemplified the therapeutic potential of MTP-PlexA1 because this peptide was able to block two major mechanisms of tumor progression.
(§3) (Stable Disease) and 62.5% PR (Partial Response).
(1 picture or pasted object on this page, not shown here)

[6] = system: U373MG tumors in nude mice; test: heterotopic U373MG xenograft in nude mice; type: in vivo, human cells in mouse
Method: Supplementary Figure S6: The anti-tumor effect of MTP-PlxA1 was verified in U373MG human GBM line. […]
as §3

[7] = U373MG, waterfall best response, RECIST criteria

TLPAIVGIGGGGGLLLLVIVAVLIAYKRK [MTP-PlexA1, synthetic transmembrane peptide mimicking the TMD of PlexA1]
change of NRP1 co-immunoprecipitated with PlexA1, Sema3A-induced ([1]; Sema3A 100 ng/ml 30 min): −24.6% | reduction of NRP1 co-immunoprecipitated with PlexA1, VEGF ([1]; VEGF 100 ng/ml 10 min): 39.4% | change of PlexA4 co-immunoprecipitated with PlexA1, Sema3A-induced ([2]; Sema3A 100 ng/ml 30 min): −35.5% | reduction of PlexA4 co-immunoprecipitated with PlexA1, VEGF ([2]; VEGF 100 ng/ml 10 min): 35.4% | proliferation of U118MG-Luc cells [3]: reduced proliferation in a dose dependent manner | decrease of PH3 positive proliferative cells in tumors [4]: 37.3% | VEGF-induced U373MG tumor cell migration [5]: abolished | change of endpoint tumor weight ([6]; U373MG flank graft, daily i.p., 10–7 M, p = 0.0044): −44% | mice responding to the treatment [6, 7]: 100% | mice with PR (Partial Response) [6, 7]: 62.5% | mice with SD (Stable Disease) [6, 7]: 37.5%
